Test results taken from patent EP0624584B1, “Piperazine derivatives useful as calmodulin inhibitors” (DAIICHI PHARMACEUTICAL CO., LTD., priority 1993, dated 1994).

Legend:
[1] = molecular target: calmodulin-depending cyclic nucleotide phosphodiesterase (PDE); assay: Calmodulin (CaM) inhibitory activity: inhibition of Ca/calmodulin-dependent PDE activity; format: biochemical; settings: concentration showing 50% inhibition of PDE activity potentiated by CaM; CaM and PDE from bovine brain, [3H]-cGMP, 30°C, 10 minutes
Protocol: The calmodulin inhibitory activity of a compound was evaluated by using its effect of inhibiting calmodulin-depending cyclic nucleotide phosphodiesterase (PDE) as an index. The assay for PDE inhibitory activity was carried out by the following procedure described by Thompson (Advances in Cyclic Nucleotide Research, 10, 69, 1979) with a modification. The first-stage incubation was carried out at 30°C for 10 minutes with the following reaction mixture: 50 mM Tris-HCl buffer (pH 7.5), 5 mM MgCl2, 1 mg/ml bovine serum albumin, CaM from bovine brain, [^3H]-cGMP, 1 mM CaCl2 or 1 mM EGTA, PDE from bovine brain, and a test compound in a total volume of 0.5 ml. After the incubation, the mixture was heated on a boiling water bath for 1 minute. Then, 50 µl of snake venom (1 mg/ml) was added to the reaction mixture and the whole mixture was incubated at 30°C for 10 minutes. After the incubation, 0.5 ml of AG1-X2 resin (1:1 slurry in water) was added to the mixture and centrifuged at 3000Xrpm for 20 min. The radioactivity of the supernatant solution was measured by a liquid scintillation counter. The IC50 value was determined as the concentration showing 50% inhibition of PDE activity potentiated by CaM.

[2] = tested on: Nitrogen-induced Hypoxia Model in Mouse; assay: Activity on nitrogen-induced hypoxia model in mouse; format: in vivo; settings: 30 mg/kg, p.o.; 60 minutes after administration; time to respiratory standstill over that of a control group (100%)
Protocol: Nine to ten mice per group were each orally given […] of a test compound. After 60 minutes from the administration, each mouse was put in a 500 mℓ-volume transparent container having a vent hole, and nitrogen gas was introduced into the container at a rate of 5000 mℓ/min. The time from the start of nitrogen introduction to respiratory standstill was measured, and a rate of increase of the time over that of a control group (100%) was obtained.

Compound	IC50 [1]	Rate of Increase of Survival Time [2]
COc1ccc(Cn2nc(CCN3CCN(c4cccc(Cl)c4C)CC3)c3cc(OC)c(OC)cc32)cc1OC [Example 12, 3-(2-(4-(3-Chloro-2-methylphenyl)-1-piperazinyl)-ethyl)-5 6-dimethoxy-1-(3,4-dimethoxybenzyl)-1H-indazole]	3.1 µM	19.2%
COc1cc2c(CCN3CCN(c4cccc(Cl)c4C)CC3)nn(Cc3c[nH]cn3)c2cc1OC [Example 15, 3-(2-(4-(3-Chloro-2-methylphenyl)-1-piperazinyl)-ethyl)-5,6-dimethoxy-1-(4-imidazolylmethyl)-1H-indazole]	5.5 µM	15.1%
NCCCCCCNS(=O)(=O)c1cccc2c(Cl)cccc12 [Example W-7, reference compound]	33.5 µM	
